Data on eight compounds can be found in patent US20230295165A1, “COMPOUNDS” (The Provost, Fellows, Foundation Scholars, and the other …, priority 2020, published 2023).

Each structure is given as a SMILES string. A value given as a limit tells only on which side of the number the result lay.

T1 sequence (Q9BXR0 whole entry): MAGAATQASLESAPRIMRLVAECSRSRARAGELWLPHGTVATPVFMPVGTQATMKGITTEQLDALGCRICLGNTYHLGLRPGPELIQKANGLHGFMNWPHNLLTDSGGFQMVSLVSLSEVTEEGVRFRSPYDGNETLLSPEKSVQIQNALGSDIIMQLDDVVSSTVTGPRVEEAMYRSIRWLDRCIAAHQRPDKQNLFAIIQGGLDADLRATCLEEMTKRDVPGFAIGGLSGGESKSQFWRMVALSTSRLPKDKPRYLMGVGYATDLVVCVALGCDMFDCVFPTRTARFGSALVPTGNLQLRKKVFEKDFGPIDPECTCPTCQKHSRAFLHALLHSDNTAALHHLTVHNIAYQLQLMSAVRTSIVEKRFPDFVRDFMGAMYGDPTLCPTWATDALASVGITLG
T1 sequence (Q9H974 whole entry partner): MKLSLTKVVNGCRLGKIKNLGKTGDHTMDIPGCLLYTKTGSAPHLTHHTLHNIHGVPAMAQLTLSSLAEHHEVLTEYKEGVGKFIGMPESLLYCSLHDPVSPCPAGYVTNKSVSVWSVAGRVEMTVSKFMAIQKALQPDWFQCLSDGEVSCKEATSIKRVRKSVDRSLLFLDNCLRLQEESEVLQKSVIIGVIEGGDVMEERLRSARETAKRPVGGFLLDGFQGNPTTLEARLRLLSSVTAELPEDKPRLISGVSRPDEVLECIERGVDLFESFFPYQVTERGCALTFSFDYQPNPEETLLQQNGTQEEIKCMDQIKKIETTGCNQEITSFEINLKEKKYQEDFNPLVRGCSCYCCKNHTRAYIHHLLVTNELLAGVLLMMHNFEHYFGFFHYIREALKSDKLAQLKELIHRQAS

One test relates to RA synovial primary fibroblasts (RASFCs). In words: Synovial fibroblast assay, IL-6 ELISA on TNF-treated RASFC supernatants. Format: cell-based, human. As to conditions: 200 μm compound, TNF 10 ng/ml, supernatants at 72 hr, n=3 RASFCs, DMSO vehicle = 100%. Here is the method: To assess the compounds in human rheumatoid arthritis samples the following protocol was employed:
Isolation of Primary Fibroblasts (RASFCs): RA synovial biopsies were digested with 1 mg/ml collagenase type 1 (Worthington Biochemical, Freehold, NJ, USA) in RPMI-1640 (Gibco-BRL, Paisley, UK) for 4 hr at 37° C. in humidified air with 5% CO2. Dissociated cells were grown to confluence in RPMI 1640, 10% FCS (Gibco-BRL), 10 ml of 1 mmol/l HEPES (Gibco-BRL), penicillin (100 units/ml; Bioscience), streptomycin (100 units/ml; Bioscience) and fungizone (0.25 μg/ml; Bioscience) before passaging. Cells were used between passages 3-8.
Compounds (200 μm) were Tested on n=3 RASFCs
RASFCs were grown to 80% confluency in 48 well plates. RASFCs were treated with TNF (10 ng/ml) in the presence of 200 μm of each compound. Media was replaced after 24 h and fresh media and compound was added. Cell supernatants were collected at 72 hr time point. DMSO treated cells were used as a vehicle control (Red dotted line represents DMSO control). IL-6 ELISA: Levels of pro-inflammatory cytokine IL6 were measured in cultured RASFC supernatants by specific ELISA (R&D systems, UK) according to manufacturer's conditions.
This assay measures the production of IL-6 as an indication of immune system activation: the lower the value the better from the point of view of alleviating RA symptoms. All compounds of the invention show an effect compared to the DMSO vehicle that represents no treatment. […]
Background: An ELISA detects its analyte on a solid surface through an enzyme-linked reagent.
`CC(C)(CCNCc1c[nH]c2nc(N)[nH]c(=O)c12)c1ccccc1.Cl` [Example 1, N-((2-amino-4-oxo-4,7-dihydro-3H-pyrrolo[2,3-d]pyrimidin-5-yl)methyl)-3-methyl-3-phenylbutan-1-ammonium chloride]: the “Level of IL6 expression compared to vehicle” value is “Reduction to 37%”. Same read-out and setting: then `Cl.Nc1nc2[nH]cc(CNCCNc3ccccc3)c2c(=O)[nH]1` [Example 5, N-((2-amino-4-oxo-4,7-dihydro-3H-pyrrolo[2,3-d]pyrimidin-5-yl)methyl)-2-(phenylamino)ethan-1-aminium chloride], with “Reduction to 48%”. On the same count and under the same terms, the entry for `Cl.Nc1nc2[nH]cc(CNCCC(=O)c3ccccc3)c2c(=O)[nH]1` [Example 7, N-((2-amino-4-oxo-4,7-dihydro-3H-pyrrolo[2,3-d]pyrimidin-5-yl)methyl)-3-oxo-3-phenylpropan-1-ammonium chloride] is “Reduction to 32%”. Still for that read-out and setting: then `Cl.Nc1nc2[nH]cc(CNCCC(c3ccccc3)c3ccccc3)c2c(=O)[nH]1` [Example 10, N-((2-amino-4-oxo-4,7-dihydro-3H-pyrrolo[2,3-d]pyrimidin-5-yl)methyl)-3,3-diphenylpropan-1-ammonium chloride], with “Reduction to 56%”; and `Cl.Nc1nc2[nH]cc(CNCC[C@@H](O)c3ccccc3)c2c(=O)[nH]1` [Example 12, (R)-N-((2-amino-4-oxo-4,7-dihydro-3H-pyrrolo[2,3-d]pyrimidin-5-yl)methyl)-3-hydroxy-3-phenylpropan-1-aminium chloride], with “Reduction to 55%”; and `Cl.Nc1nc2[nH]cc(CNCC[C@H](O)c3ccccc3)c2c(=O)[nH]1` [Example 13, (S)-N-((2-amino-4-oxo-4,7-dihydro-3H-pyrrolo[2,3-d]pyrimidin-5-yl)methyl)-3-hydroxy-3-phenylpropan-1-aminium chloride], with “Reduction to 67%”. Regarding `C[C@@H]1CCN(C(=O)CC#N)C[C@@H]1N(C)c1ncnc2[nH]ccc12` [Positive control (Tofacitinib), Tofacitinib, reference compound], the “Level of IL6 expression compared to vehicle” value is given as “Reduction to 57%”.

A further test has as its target T1, queuine-tRNA ribosyltransferase enzyme complex (hQTRT1:hQTRT2) (Homo sapiens, UniProt Q9BXR0).
T1 construct: polyhistidine tag (N); made in house; host or cells: E. coli BL21(DE3) tgt::Kmr
Put plainly: [8-14C] guanine displacement assay (tRNA*). Format: biochemical. As to conditions: 50 μM compound, 100 nM hQTRT1:hQTRT2, 30 mins at 37° C.; background ≤2%; ≥5% counts as positive substrate for TGT. Here is the method: Compounds capable of acting as a queuine-tRNA ribosyltransferase enzyme complex substrate may be identified by use of a displacement assay as described below:
Production of [8-^14C] Guanine Labeled tRNA (tRNA*)
Before adding the 8-[^14C] guanine solution to the reaction the solution was neutralised with an equal volume (vol/vol) 0.01 M NaOH, as the [8-^14C] Guanine is supplied in 0.01 M HCl aqueous solution. In vitro synthesised human tyrosyl tRNA was prepared by T7 transcription in ultrapure nuclease-free water as described previously (Alqasem et al., 2020). Recombinant human QTRT1 enzyme containing an N-terminalpolyhistidine tag and human QTRT2 containing a C-terminal TEV-Strep-Tag®II tag were produced in BL21(DE3) tgt::Kmr cells as described previously (Alqasem et al., 2020).
The reaction was incubated for 1 hour at 37° C. […] The tRNA* pellet was resuspended in 30 μL nuclease-free water and the concentration measured spectrophotometrically at A260. […]
After 30 mins the reactions were quenched by mixing with 2.5 ml ice-cold 10% trichloroacetic acid (TCA) and placed on ice for one hour to precipitate the tRNA. […] The vacuum manifold was disassembled, the filters recovered and dried again at room temperature before being placed in scintillation vials containing 10 ml of Ecoscint A and radioactivity levels measured by scintillation counting. […]
For `Nc1nc2[nH]cc(CN[C@H]3C=C[C@H](O)[C@@H]3O)c2c(=O)[nH]1` [queuine base, queuine], the “displacement of the [14C] guanine” value is on record as over 98%.
